According to patent US20050239884A1, “Compositions comprising hmg-coa reductase inhibitor” (priority 2002, published 2005):
Where a name gives a salt, the structure may show the parent alone.

Test: degradation kinetics of fluvastatin in aqueous solution at various pH
Type: physicochemical

CC(C)n1c(/C=C/C(O)CC(O)CC(=O)O)c(-c2ccc(F)cc2)c2ccccc21 (stereo not drawn) [fluvastatin, R*,S*-(E)-(±)-7-[3-(4-fluorophenyl)-1-(1-methyl-ethyl)-1H-indol-2-yl]-3,5-dihydroxy-6-heptenoic acid, sodium salt]
% fluvastatin remaining at 37° C. after 1 hour (pH 1.0, 37° C.): 10.9%
% fluvastatin remaining at 37° C. after 24 hrs (pH 1.0, 37° C.): 0%
% fluvastatin remaining at 37° C. after 1 hour (pH 4.0, 37° C.): 86.7%
% fluvastatin remaining at 37° C. after 24 hrs (pH 4.0, 37° C.): 25.2%
% fluvastatin remaining at 37° C. after 1 hour (pH 6.0, 37° C.): 99.6%
% fluvastatin remaining at 37° C. after 24 hrs (pH 6.0, 37° C.): 97.1%
% fluvastatin remaining at 37° C. after 1 hour (pH 7.8, 37° C.): 98.3%
% fluvastatin remaining at 37° C. after 24 hrs (pH 7.8, 37° C.): 98.0%
